Legend:
human IGF1R (hIGF1R) = target: T1, human IGF1R (hIGF1R) (Homo sapiens, UniProt P08069); assay: IGF1R TR-FRET assay using peptide as the phosphoacceptor; type: biochemical; conditions: 10 μM ATP, 0.5 nM activated enzyme; for IC50: read-out: IGF-1R pIC50 (converted)
T1 construct: containing amino acid residues 957-1367 of human IGF1R; made in house; host or cells: Sf9 cells, baculovirus
Procedure: A. IR and IGF1 R Time Resolved Fluorescence Resonance Energy Transfer (TR-FRET) Assay Using Peptide as the Phosphoacceptor
Substrate phosphorylation assays are carried out as follows:
The Source of Substrate Peptide
The biotinylated substrate peptide, (sequence-Biotin-aminohexyl-AEEEEY*[…]-NH2) SEQ. ID. 1 is purchased from QCB, Inc. (Hopkinton, Mass.). Purity is determined by HPLC. The calculated molecular mass of the peptide is 2216 dalton. Tyrosine phosphorylation by human IGF1R (hIGF1R) or human IR (hIR) occurs as indicated (Y*) in the peptide sequence described. Solid peptide sample is dissolved to approximately 1 mM in DMSO, aliquoted, and stored at −20° C. until use. True peptide concentration is determined by amino acid analysis.
The Source of Enzyme: • hIGF1R: GST-rTEV-IGF-1R (957-1367) containing amino acid residues 957-1367 of human IGF1R (as annotated by National Center for Biotechnology Information (NCBI) accession number NP_000866) is purified from a baculovirus expression system in Sf9 cells using Glutathione Sepharose 4FF column chromatography followed by Sephadex-200 size exclusion column chromatography. Enzyme purity of approximately 95% is achieved. Samples, in 25 mM Tris-HCl, 250 mM NaCl, 5% glycerol, 1 mM DTT, pH 7.5, are stored at −80° C. until use. • hIR: GST-rTEV-IR(979-1382) containing amino acid residues 979-1382 of human IR (as annotated by NCBI accession number NP_000199) is expressed and purified by the same process as hIGF1R. Enzyme purity of approximately 92% is achieved. Samples, in 25 mM Tris-HCl, 250 mM NaCl, 5% glycerol, 1 mM DTT, pH 7.5, are stored at −80° C. until use.
Activation of hIGF1R and hIR by Autophosphorylation: • hIGF1R: Activation of GST-rTEV-IGF-1R(957-1367) is achieved by a 4 minute incubation of hIGF1R (2.7 μM final) with 2 mM ATP in 50 mM HEPES, 20 mM MgCl2, 0.1 mg/mL BSA, at room temperature. Autophosphorylation is stopped by addition of EDTA (to 100 mM final). Aliquoted samples are flash frozen in liquid nitrogen and stored at −80° C. until use. • hIR: Activation of […] is achieved by a 5 minute incubation of hIR (2.7 μM final) with 2 mM ATP in 100 mM HEPES, 10 mM MgCl2, 0.1 mg/mL BSA, at room temperature. Autophosphorylation is stopped by addition of EDTA (to 100 mM final). Aliquoted samples are flash frozen in liquid nitrogen and stored at −80° C. until use. • Kinase Assay of Purified hIGF1R or hIR:
Assays are performed in 384-well (Greiner, Catalog No. 784076) microtiter plates. Reaction buffer (50 mM HEPES buffer, pH 7.5; 10 mM MgCl2; 3 mM DTT; 1 mM CHAPS; 0.1 mg/mL BSA) for peptide phosphorylation (10 μl volume) contained, in final concentrations, 500 nM biotinylated peptide substrate; 10 μM ATP; and purified, activated hIGF1R or hIR (0.5 nM). Some compounds were initially assayed against IGF1R in buffer without DTT or CHAPS. […] Compounds, titrated in DMSO, are evaluated at eleven concentrations ranging from 50 μM to 0.2 nM. […] No effect on activity relative to controls without DMSO is observed for hIGF1R or IR at these DMSO amounts. Reactions are incubated for 1 hour at room temperature and are stopped by a 5 μl addition of EDTA (to 33 mM). A further addition of 5 μl detection reagents (for final 7 nM Streptavidin-APC (PerkinElmer #CR130-150), 1 nM Europium-labeled anti-phosphotyrosine monoclonal antibody (PerkinElmer #AD0067), added in reaction buffer (without DTT), is required for signal generation. After 30 minutes, signal is read on PerkinElmer Viewlux microplate imager or Wallac Victor fluorometer.
Data were fitted to the curve described by:
y=((Vmax*x)/(K+x)) where • Vmax is the upper asymptote and • K is the IC50.
The results for each tested compound were recorded as pIC50 calculated as follows: […]

human IR (hIR) = target: T2, human IR (hIR) (Homo sapiens, UniProt P06213); assay: IR TR-FRET assay using peptide as the phosphoacceptor; type: biochemical; conditions: 10 μM ATP, 0.5 nM activated enzyme; read-out: IR pIC50 (converted)
T2 construct: containing amino acid residues 979-1382 of human IR; GST (N); rTEV protease site (linker between GST and kinase) (N); made in house; host or cells: Sf9 cells, baculovirus (same process as hIGF1R)
T2 sequence (P06213 979-1382): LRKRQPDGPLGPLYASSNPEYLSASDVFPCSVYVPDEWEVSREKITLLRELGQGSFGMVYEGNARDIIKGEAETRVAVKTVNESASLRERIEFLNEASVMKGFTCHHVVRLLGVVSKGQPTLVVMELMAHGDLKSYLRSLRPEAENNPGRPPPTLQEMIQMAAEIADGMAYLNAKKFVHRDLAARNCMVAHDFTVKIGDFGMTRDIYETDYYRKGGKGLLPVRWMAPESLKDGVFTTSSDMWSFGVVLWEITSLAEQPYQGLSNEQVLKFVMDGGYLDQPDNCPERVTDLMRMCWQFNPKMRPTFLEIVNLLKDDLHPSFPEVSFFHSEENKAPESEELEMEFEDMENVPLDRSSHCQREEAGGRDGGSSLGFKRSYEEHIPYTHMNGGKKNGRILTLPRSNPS

COLO205 (colon) = assay: Inhibition of cell proliferation, CellTiter-Glo, COLO205; type: cell-based; conditions: Homo sapiens, COLO 205, 72 h
Procedure, shortened: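 Exponentially growing COLO205 cells in medium with 10% FBS were plated below 2000 cells/well at 37 °C, 5% CO2. Untreated wells served as controls.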

[1] = system: NCI-H929 (multiple myeloma); assay: Inhibition of cell proliferation, CellTiter-Glo, NCI-H929; type: cell-based; conditions: Homo sapiens, 72 h
Procedure, shortened: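 Cells were grown in medium with 10% FBS at 37° C, 5% CO2. Cell number was read as CellTiter-Glo luminescence (cellular ATP), with untreated wells as control.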

[2] = target: T3, human IGF-1R (NIH-3T3 cells over expressing human IGF-1R) (Homo sapiens, UniProt P08069); assay: IGF-1R cellular autophosphorylation (DELFIA); type: cell-based; conditions: IGF-1 stimulated
T3 construct: expressed in transfected cells; host or cells: NIH-3T3 (mouse fibroblasts)
T3 sequence (P08069 31-1367): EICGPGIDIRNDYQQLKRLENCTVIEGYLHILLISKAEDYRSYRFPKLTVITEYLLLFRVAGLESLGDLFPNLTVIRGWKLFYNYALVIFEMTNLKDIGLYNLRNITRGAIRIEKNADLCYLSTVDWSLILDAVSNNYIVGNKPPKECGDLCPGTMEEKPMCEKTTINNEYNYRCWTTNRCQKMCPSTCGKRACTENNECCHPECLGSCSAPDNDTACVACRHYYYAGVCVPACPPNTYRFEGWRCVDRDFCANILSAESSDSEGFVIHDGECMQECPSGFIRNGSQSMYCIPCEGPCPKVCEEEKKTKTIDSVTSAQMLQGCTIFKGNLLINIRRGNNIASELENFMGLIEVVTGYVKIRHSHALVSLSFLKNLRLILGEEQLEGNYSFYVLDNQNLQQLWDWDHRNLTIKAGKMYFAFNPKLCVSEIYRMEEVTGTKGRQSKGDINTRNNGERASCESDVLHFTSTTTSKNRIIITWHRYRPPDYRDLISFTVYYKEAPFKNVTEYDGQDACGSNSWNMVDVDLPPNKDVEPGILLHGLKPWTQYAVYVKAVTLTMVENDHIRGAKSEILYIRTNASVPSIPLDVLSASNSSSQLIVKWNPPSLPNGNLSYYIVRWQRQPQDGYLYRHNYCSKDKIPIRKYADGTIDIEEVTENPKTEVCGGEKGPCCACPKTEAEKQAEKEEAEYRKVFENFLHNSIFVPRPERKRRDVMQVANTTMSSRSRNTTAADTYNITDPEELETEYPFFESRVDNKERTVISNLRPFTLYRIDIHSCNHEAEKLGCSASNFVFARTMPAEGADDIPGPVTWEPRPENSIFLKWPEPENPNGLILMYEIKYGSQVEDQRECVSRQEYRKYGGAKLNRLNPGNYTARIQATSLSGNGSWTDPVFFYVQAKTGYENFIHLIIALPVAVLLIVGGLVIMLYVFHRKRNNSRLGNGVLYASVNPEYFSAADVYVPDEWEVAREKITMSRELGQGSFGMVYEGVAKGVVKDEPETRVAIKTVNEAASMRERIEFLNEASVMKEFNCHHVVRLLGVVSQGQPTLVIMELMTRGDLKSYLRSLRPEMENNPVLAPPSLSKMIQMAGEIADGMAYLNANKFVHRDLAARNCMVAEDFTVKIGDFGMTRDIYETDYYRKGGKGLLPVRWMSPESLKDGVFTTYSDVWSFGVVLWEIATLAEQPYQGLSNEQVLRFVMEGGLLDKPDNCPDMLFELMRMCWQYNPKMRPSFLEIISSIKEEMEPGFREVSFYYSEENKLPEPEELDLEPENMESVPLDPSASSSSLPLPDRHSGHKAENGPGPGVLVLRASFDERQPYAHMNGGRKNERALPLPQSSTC
Procedure, shortened: (§1)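 Autophosphorylation of IGF-1R or IR is measured in NIH-3T3 lines overexpressing each human receptor after 2 h compound pretreatment and a 15 min ligand challenge (IGF-1 30 ng/mL; insulin 3 ug/mL). Fluorescence is normalised to 100% stimulation.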

[3] = target: T4, IR (NIH-3T3 cells over expressing human IGF-1R or IR) (Homo sapiens, UniProt P06213); assay: IR cellular autophosphorylation (DELFIA); type: cell-based; conditions: NIH-3T3 cells over expressing IR, insulin stimulated
T4 construct: expressed in transfected cells; host or cells: NIH-3T3 (mouse fibroblasts)
T4 sequence (P06213 28-1382): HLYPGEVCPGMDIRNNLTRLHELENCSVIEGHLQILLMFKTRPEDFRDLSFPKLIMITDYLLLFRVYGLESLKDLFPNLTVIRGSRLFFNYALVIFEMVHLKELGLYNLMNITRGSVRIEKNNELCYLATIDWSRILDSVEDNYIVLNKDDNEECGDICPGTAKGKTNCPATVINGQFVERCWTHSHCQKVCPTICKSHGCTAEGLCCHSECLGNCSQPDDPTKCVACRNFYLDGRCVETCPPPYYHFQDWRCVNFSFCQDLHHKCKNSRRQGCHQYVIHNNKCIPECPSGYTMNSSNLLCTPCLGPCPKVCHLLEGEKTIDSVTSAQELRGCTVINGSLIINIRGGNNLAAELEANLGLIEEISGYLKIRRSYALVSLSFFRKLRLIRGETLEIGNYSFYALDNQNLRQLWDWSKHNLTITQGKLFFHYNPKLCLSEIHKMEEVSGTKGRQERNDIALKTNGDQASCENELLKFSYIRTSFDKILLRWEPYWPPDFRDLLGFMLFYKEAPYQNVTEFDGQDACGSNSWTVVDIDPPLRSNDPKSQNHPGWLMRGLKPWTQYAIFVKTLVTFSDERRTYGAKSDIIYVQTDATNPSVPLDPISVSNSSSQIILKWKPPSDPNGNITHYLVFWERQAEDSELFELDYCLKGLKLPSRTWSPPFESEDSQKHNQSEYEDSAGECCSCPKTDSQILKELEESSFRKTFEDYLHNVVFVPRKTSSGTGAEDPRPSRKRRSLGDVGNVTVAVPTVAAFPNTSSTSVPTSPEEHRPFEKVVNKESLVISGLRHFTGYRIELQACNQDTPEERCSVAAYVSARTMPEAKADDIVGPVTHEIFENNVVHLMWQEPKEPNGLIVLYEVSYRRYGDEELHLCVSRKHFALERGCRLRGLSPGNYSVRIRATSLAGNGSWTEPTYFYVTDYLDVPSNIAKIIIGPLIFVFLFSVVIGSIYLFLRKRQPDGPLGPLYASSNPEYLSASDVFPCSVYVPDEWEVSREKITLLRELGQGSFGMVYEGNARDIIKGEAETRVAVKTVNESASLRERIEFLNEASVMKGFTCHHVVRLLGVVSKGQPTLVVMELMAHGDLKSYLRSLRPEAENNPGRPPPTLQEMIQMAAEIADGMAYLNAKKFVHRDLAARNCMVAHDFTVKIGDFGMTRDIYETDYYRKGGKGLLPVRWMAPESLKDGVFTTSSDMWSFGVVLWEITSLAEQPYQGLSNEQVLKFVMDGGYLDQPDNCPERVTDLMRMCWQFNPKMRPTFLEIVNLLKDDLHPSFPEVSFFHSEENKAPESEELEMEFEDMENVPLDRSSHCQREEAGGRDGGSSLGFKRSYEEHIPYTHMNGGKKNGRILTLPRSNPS
Procedure, shortened: as §1

T1 sequence (P08069 957-1367): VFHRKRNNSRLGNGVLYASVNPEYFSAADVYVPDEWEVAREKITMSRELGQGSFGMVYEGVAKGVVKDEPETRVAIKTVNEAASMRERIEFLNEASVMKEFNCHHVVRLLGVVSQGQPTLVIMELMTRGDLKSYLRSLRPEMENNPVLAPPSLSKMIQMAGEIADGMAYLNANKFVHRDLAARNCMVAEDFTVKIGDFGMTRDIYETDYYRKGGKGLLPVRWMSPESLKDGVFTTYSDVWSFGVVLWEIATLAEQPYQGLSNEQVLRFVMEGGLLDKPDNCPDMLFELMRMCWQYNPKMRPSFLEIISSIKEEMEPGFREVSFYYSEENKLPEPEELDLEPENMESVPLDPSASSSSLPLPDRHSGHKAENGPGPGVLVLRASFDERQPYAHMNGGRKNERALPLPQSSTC

SMILES | IC50 (human IGF1R (hIGF1R)) | IC50 (human IR (hIR)) | IC50 (COLO205 (colon)) | IC50 [1] | IC50 [2] | IC50 [3] | IGF-1R pIC50 (human IGF1R (hIGF1R))
CCOc1ccc(-c2nc3ccccn3c2-c2ccnc(Nc3cc(Cl)c(N4CCN(CCS(C)(=O)=O)CC4)cc3OC)n2)cc1C(=O)Nc1c(F)cccc1F [Example 212] | < 100 nM | < 100 nM | < 250 nM | < 250 nM | < 100 nM | < 100 nM | 
CCOc1ccc(-c2nc3ccccn3c2-c2ccnc(Nc3cc(CC)c(N4CCC(CCS(C)(=O)=O)CC4)cc3OC)n2)cc1C(=O)Nc1c(F)cccc1F [Example 209, N-(2,6-difluorophenyl)-5-(3-{2-[(5-ethyl-2-(methyloxy)-4-{4-[2-(methylsulfonyl)ethyl]-1-piperidinyl}phenyl)amino]-4-pyrimidinyl}imidazo[1,2-a]pyridin-2-yl)-2-(ethyloxy)benzamide] |  |  | < 250 nM | < 250 nM | < 100 nM | < 100 nM | ++ (at least one average pIC50 measurement greater than 6 against the kinase tested but no average measurement greater than pIC50 of 7)
CCOc1cc(CCN2CCN(C)CC2)ccc1Nc1nccc(-c2c(-c3ccc(OC)c(C(=O)Nc4c(F)cccc4F)c3)nc3ccccn23)n1 [Example 146, N-(2,6-difluorophenyl)-5-{3-[2-({2-(ethyloxy)-4-[2-(4-methyl-1-piperazinyl)ethyl]-phenyl}amino)-4-pyrimidinyl]imidazo[1,2-a]pyridin-2-yl}-2-(methyloxy)benzamide] | < 100 nM | < 100 nM | 250 to 1000 nM |  | > 500 nM | > 500 nM | 
CCOc1cc(CCN2CCN(C)CC2)ccc1Nc1nccc(-c2c(-c3cccc(C(=O)Nc4c(F)cccc4F)c3)nc3ccccn23)n1 [Example 147, N-(2,6-difluorophenyl)-3-{3-[2-({2-(ethyloxy)-4-[2-(4-methyl-1-piperazinyl)ethyl]-phenyl}amino)-4-pyrimidinyl}imidazo[1,2-a]pyridin-2-yl]benzamide] | < 100 nM | < 100 nM | > 1000 nM |  | < 100 nM | < 100 nM | 

The next lines start with results.

IC50 (human IGF1R (hIGF1R)) | IC50 (human IR (hIR)) | IC50 (COLO205 (colon)) | IC50 [1] | IC50 [2] | IC50 [3] | SMILES | IGF-1R pIC50 (human IGF1R (hIGF1R))
 |  | < 250 nM | < 250 nM | < 100 nM | < 100 nM | CCOc1cc(N2CCC(CCS(C)(=O)=O)CC2)c(C)cc1Nc1nccc(-c2c(-c3ccc(OCC)c(C(=O)Nc4c(F)cccc4F)c3)nc3ccccn23)n1 [Example 217, N-(2,6-difluorophenyl)-2-(ethyloxy)-5-(3-{2-[(2-(ethyloxy)-5-methyl-4-{4-[2-(methylsulfonyl)ethyl]-1-piperidinyl}phenyl)amino]-4-pyrimidinyl}imidazo[1,2-a]pyridin-2-yl)benzamide] | ++ (at least one average pIC50 measurement greater than 6 against the kinase tested but no average measurement greater than pIC50 of 7)
 |  | < 250 nM | < 250 nM | < 100 nM | < 100 nM | COc1cc(N2CCC(CCS(C)(=O)=O)CC2)c(C)cc1Nc1nccc(-c2c(-c3ccc(OC(C)C)c(C(=O)Nc4c(F)cccc4F)c3)nc3ccccn23)n1 [Example 214, N-(2,6-difluorophenyl)-2-[(1-methylethyl)oxy]-5-(3-{2-[(5-methyl-2-(methyloxy)-4-{4-[2-(methylsulfonyl)ethyl]-1-piperidinyl}phenyl)amino]-4-pyrimidinyl}imidazo[1,2-a]pyridin-2-yl)benzamide] | ++ (at least one average pIC50 measurement greater than 6 against the kinase tested but no average measurement greater than pIC50 of 7)

Reference: patent publication US20100216779A1 (GLAXOSMITHKLINE LLC, priority 2007, published 2010)
